Counter-ions that a name gives are not always drawn.
Target: T1, h5-HT5A receptor (Homo sapiens, UniProt P47898)
T1 construct: expressed in transfected cells; host or cells: HEK293
Assay: [3H]5-CT binding assay h5-HT5A
Conditions: membranes from HEK293 cells expressing h5-HT5A, 2.5 nM [3H]5-CT; read-out: Binding affinity 5-HT5A (Ki)
Experimental: 1. [^3H]5-CT binding assay h5-HT5A
Membranes from HEK293-cells, which permanently express the h5-HT5A receptor gene, were incubated in 100 mM Tris-HCl-buffer (pH 7.7), containing 1 mM EDTA in the presence of 2.5 nM [^3H]5-CT (600 μl total volume). The total binding is defined as the binding which is observed when the membranes are incubated alone in the presence of the radioligand. The inhibition induced by the compound is determined by incubation of cell membranes in the presence of the radioligand, and of different concentrations of the compound of interest. Unspecific binding is defined by the binding of [^3H]5-CT, which is obtained by incubation of the membranes as for the total binding but in the presence of 10 μM methiothepine. Following an incubation of 75 minutes at 30° C. the membrane suspension is filtered through GF/B-filters, wrapped in 0.03% PEI, wherein a Skatron® harvest system is used. The radioactivity retained in the filter is quantified by liquid scintillation counting.
In both assays, different concentrations of the test substances are used, and the Ki or the IC50 values are determined.

T1 sequence (P47898 whole entry): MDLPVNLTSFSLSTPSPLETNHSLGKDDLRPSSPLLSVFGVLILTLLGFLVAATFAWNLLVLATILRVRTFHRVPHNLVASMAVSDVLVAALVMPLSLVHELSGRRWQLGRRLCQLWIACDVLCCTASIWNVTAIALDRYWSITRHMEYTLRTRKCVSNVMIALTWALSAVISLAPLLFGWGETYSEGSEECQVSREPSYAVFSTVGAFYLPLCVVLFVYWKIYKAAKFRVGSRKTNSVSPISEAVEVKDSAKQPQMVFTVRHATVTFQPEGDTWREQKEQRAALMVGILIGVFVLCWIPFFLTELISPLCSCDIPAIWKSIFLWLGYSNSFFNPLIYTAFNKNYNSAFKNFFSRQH

Ki	Compound
< 50 nM	COc1ccccc1CNC(=N)Nc1nccs1 [Example 1, N-(2-methoxybenzyl)-N′-1,3-thiazole-2-ylguanidine]
< 50 nM	COc1cccc(OC)c1CNC(=N)Nc1nc(-c2ccccc2)cs1 [Example 2, N-(2,6-dimethoxybenzyl)-N′-(4-phenyl-1,3-thiazole-2-yl)guanidine]
< 50 nM	CCc1csc(NC(=N)NCc2c(OC)cccc2OC)n1 [Example 3, N-(2,6-dimethoxybenzyl)-N′-(4-ethyl-1,3-thiazole-2-yl)-guanidine]
50 to 500 nM	Cc1ccc(C)c(CNC(=N)Nc2nccs2)c1 [Example 4, N-(2,5-dinnethylbenzyl)-N′-1,3-thiazole-2-ylguanidine hydrochloride]
< 50 nM	COc1cccc(OC)c1CNC(=N)Nc1nccs1 [Example 5, N-(2,6-dimethoxybenzyl)-N′-1,3-thiazole-2-ylguanidine]
< 50 nM	COc1cccc(Cl)c1CNC(=N)Nc1nccs1 [Example 6, N-(2-chloro-6-methoxybenzyl)-N′-1,3-thiazole-2-ylguanidine hydrochloride]
> 500 nM	N=C(NCc1ccccc1Cl)Nc1nccs1 [Example 7, N-(2-chlorobenzyl)-N′-1,3-thiazole-2-ylguanidine hydrochloride]
< 50 nM	CCOc1ccccc1CNC(=N)Nc1nccs1 [Example 8, N-(2-ethoxybenzyl)-N′-1,3-thiazole-2-ylguanidine hydrochloride]
< 50 nM	COc1cccc(F)c1CNC(=N)Nc1nccs1 [Example 9, N-(2-fluoro-6-methoxybenzyl)-N′-1,3-thiazole-2-ylguanidine]
> 500 nM	Cc1ccccc1CNC(=N)Nc1nccs1 [Example 12, N-(2-methylbenzyl)-N′-1,3-thiazole-2-ylguandine]
> 500 nM	N=C(NCc1cccc(Cl)c1)Nc1nccs1 [Example 13, N-(3-chlorobenzyl)-N′-1,3-thiazole-2-ylguanidine hydrochloride]
50 to 500 nM	COc1cccc(CNC(=N)Nc2nccs2)c1 [Example 14, N-(3-methoxybenzyl)-N′-1,3-thiazole-2-ylguanidine hydrochloride]
> 500 nM	COc1ccc(CNC(=N)Nc2nccs2)cc1 [Example 15, N-(4-methoxybenzyl)-N′-1,3-thiazole-2-ylguanidine]
50 to 500 nM	N=C(NCc1ccccc1OCc1ccccc1)Nc1nccs1 [Example 17, N-[2-(benzyloxy)benzyl]-N′-1,3-thiazole-2-ylguanidine]
> 500 nM	N=C(NCc1ccccc1C(F)(F)F)Nc1nccs1 [Example 18, N-1,3-thiazole-2-yl-N′[2-(trifluoromethyl)benzyl]guanidine]
50 to 500 nM	COc1cccc(OC)c1CNC(=N)Nc1nc(-c2cc(C(F)(F)F)cc(C(F)(F)F)c2)cs1 [Example 19, N-{4-[3,5-bis(trifluoromethyl)phenyl]-1,3-thiazole-2-yl}-N′-(2,6-dimethoxybenzyl)guanidine hydrobromide]
> 500 nM	COc1ccccc1C(=O)NC(=N)Nc1nccs1 [Example 20, N-[Imino(1,3-thiazole-2-ylamino)methyl]-2-methoxybenzamide]
< 50 nM	COc1cccc(OC)c1CNC(=N)Nc1nc(-c2cc(Cl)ccc2Cl)cs1 [Example 21, N-[4-(2,5-dichlorophenyl)-1,3-thiazole-2-yl]-N′-(2,6-dimethoxybenzyl)guanidine hydrobromide]
> 500 nM	CC(=O)Nc1cccc(OCCCNC(=N)Nc2nccs2)c1 [Example 22, N-[3-(3-{[imino(1,3-thiazole-2-ylamino)methyl]amino}propoxy)phenyl]acetamide]
> 500 nM	CC(=O)c1cccc(OCCCNC(=N)Nc2nccs2)c1 [Example 23, N-[3-(3-acetylphenoxy)propyl]-N′-1,3-thiazole-2-ylguanidine (2E)-But-2-endioate]
> 500 nM	CNC(=Nc1nccs1)NCc1ccccc1OC [Example 24, N-(2-methoxybenzyl)-N′-methyl-N″-1,3-thiazole-2-ylguanidine (2E)-But-2-endioate]
> 500 nM	CCNC(=Nc1nccs1)NCc1ccccc1OC [Example 26, N-ethyl-N′-(2-methoxybenzyl)-N″-1,3-thiazole-2-ylguanidine (2E)-But-2-endioate]
< 50 nM	COc1cccc(OC)c1CNC(=N)Nc1nc2ccccc2s1 [Example 27, N-1,3-benzothiazole-2-yl-N′-(2,6-dimethoxybenzypguanidine (2E)-But-2-endioate]

Ki	Compound
50 to 500 nM	COc1ccccc1CNC(=N)Nc1nc2ccccc2s1 [Example 28, N-1,3-benzothiazole-2-yl-N′-(2-methoxybenzyl)guanidine (2E)-But-2-endioate]
50 to 500 nM	N=C(NCCOc1ccccc1Cl)Nc1nccs1 [Example 29, N-[2-(2-chlorophenoxy)ethyl]-N′-1,3-thiazole-2-ylguanidine (2E)-But-2-endioate]
50 to 500 nM	COc1ccccc1CNC(=N)Nc1ccsc1 [Example 30, N-(2-methoxy-benzyl)-N′-thiophene-3-yl-guanidine acetate]
50 to 500 nM	COc1ccccc1CNC(=N)Nc1nc(-c2ccccc2)cs1 [Example 31, N-(2-methoxybenzyl)-N′-(4-phenyl-1,3-thiazole-2-yl)guanidine]
< 50 nM	COc1cccc(OC)c1CNC(=N)Nc1nc(C)cs1 [Example 32, N-(2,6-dimethoxybenzyl)-N′-(4-methyl-1,3-thiazole-2-yl)guanidine]
< 50 nM	COc1ccccc1CNC(=N)Nc1nc(-c2ccc3ccccc3c2)cs1 [Example 33, N-(2-methoxybenzyl)-N′-[4-(2-naphthyl)-1,3-thiazole-2-yl]guanidine]
< 50 nM	COc1cccc(OC)c1CNC(=N)Nc1nc(-c2ccc3ccccc3c2)cs1 [Example 34, N-(2,6-dimethoxybenzyl)-N′-[4-(2-naphthyl)-1,3-thiazole-2-yl]guanidine]
> 500 nM	COc1ccccc1CNC(=N)Nc1nc(-c2ccc(Cl)cc2)cs1 [Example 35, N-[4-(4-chlorophenyl)-1,3-thiazole-2-yl]-N′-(2-methoxybenzyl)guanidine]
< 50 nM	COc1cccc(OC)c1CNC(=N)Nc1nc(C(C)(C)C)cs1 [Example 36, N-(4-tert-butyl-1,3-thiazole-2-yl)-N′-(2,6-dimethoxybenzyl)guanidine]
50 to 500 nM	COc1ccccc1CNC(=N)Nc1nc(C(C)(C)C)cs1 [Example 37, N-(4-tert-butyl-1,3-thiazole-2-yl)-N′-(2-methoxybenzyl)guanidine (2E)-But-2-endioate]
50 to 500 nM	COc1cccc(OC)c1CNC(=N)Nc1nc(-c2ccc(Cl)cc2)cs1 [Example 38, N-[4-(4-chlorophenyl)-1,3-thiazole-2-yl]-N′-(2,6-dimethoxybenzyl)guanidine]
< 50 nM	COc1ccccc1CNC(=N)Nc1nc(C)cs1 [Example 39, N-(2-methoxybenzyl)-N′-(4-methyl-1,3-thiazole-2-yl)guanidine (2E)-But-2-endioate]
< 50 nM	COc1ccccc1CNC(=N)Nc1nc(C)c(C)s1 [Example 40]
< 50 nM	COc1ccccc1CNC(=N)Nc1nc(-c2ccccn2)cs1 [Example 41, N-(2-methoxybenzyl)-N′-(4-pyridine-2-yl-1,3-thiazole-2-yl)guanidine]
< 50 nM	COc1cccc(OC)c1CNC(=N)Nc1nc(-c2ccccn2)cs1 [Example 42, N-(2,6-dimethoxybenzyl)-N′-(4-pyridine-2-yl-1,3-thiazole-2-yl)guanidine (2E)-But-2-endioate]
50 to 500 nM	COc1ccccc1CNC(=N)Nc1nc(-c2ccccc2Cl)cs1 [Example 43, N-[4-(2-chlorophenyl)-1,3-thiazole-2-yl]-N′-(2-methoxybenzyl)guanidine (2E)-But-2-endioate]
< 50 nM	COc1cccc(OC)c1CNC(=N)Nc1nc(-c2ccccc2Cl)cs1 [Example 44, N-[4-(2-chlorophenyl)-1,3-thiazole-2-yl]-N′-(2,6-dimethoxybenzyl)guanidine]
< 50 nM	COc1cccc(OC)c1CNC(=N)Nc1nc(-c2ccncc2)cs1 [Example 45, N-(2,6-dimethoxybenzyl)-N′-(4-pyridine-4-yl-1,3-thiazole-2-yl)guanidine]
< 50 nM	COc1ccccc1CNC(=N)Nc1nc(-c2ccncc2)cs1 [Example 46, N-(2-methoxybenzyl)-N′-(4-pyridine-4-yl-1,3-thiazole-2-yl)guanidine]
50 to 500 nM	COc1ccccc1CNC(=N)Nc1nc(-c2cccnc2)cs1 [Example 48, N-(2-methoxybenzyl)-N′-(4-pyridine-3-yl-1,3-thiazole-2-yl)guanidine]
< 50 nM	COC(=O)Cc1csc(NC(=N)NCc2c(OC)cccc2OC)n1 [Example 49, Methyl-(2-{[[(2,6-dimethoxybenzyl)amino](imino)methyl]amino}-1,3-thiazole-4-yl)acetate]
< 50 nM	COc1cccc(OC)c1CNC(=N)Nc1nc(-c2cccnc2)cs1 [Example 50, N-(2,6-dimethoxybenzyl)-N′-(4-pyridine-3-yl-1,3-thiazole-2-yl)guanidine acetate]

Compound	Ki
2-(2-{[[(2,6-dimethoxybenzyl)amino](imino)methyl]amino}-1,3-thiazole-4-yl)-N-(2-methoxybenzyl)acetamide (2E)-But-2-endioate [Example 51]	< 50 nM
COc1ccccc1CCNC(=N)Nc1nccs1 [Example 16, N-[2-(2-methoxyphenyl)ethyl]-N′-1,3-thiazole-2-ylguanidine hydrochloride]	> 500 nM
